What was measured:
Format in all cases: cell-based
[1] = system: A. nidulans strains WMH1739 and WMH1740 (WMH1738 transformed with pWHM1263); assay: Lovastatin resistance test: spore suspension streaked on solid AMM plates containing lovastatin
Method: (§1) This strain WMH1738 was transformed to hygromycin B resistance with pWHM1263. Transformant colonies were screened for lovastatin resistance and for the production of new metabolites as described below and two strains WMH1739 and WMH1740 were chosen for further analysis. […] This was analyzed by streaking 10 μl of a spore suspension on solid AMM plates containing lovastatin at 0, 0.1, 0.5, 1, 5, 10, 50 and 100 μg/ml and incubating at 37° C. Strains WMH1739 and WMH1740 were compared to strains WMH1741 and WMH1742 which were derivatives of WMH1738 transformed to hygromycin resistance with AN26. […] The two lovastatin resistant strains were fermented in lovastatin-producing conditions using fermentation method B and extracts were analyzed for lovastatin related metabolites as described below. […] One compound that was common to both comigrated with monacolin J on TLC and HPLC analysis by the methods described below. Semi-preparative HPLC was used to partially purify some of this compound, which was then analyzed by HPLC—MS. It had the same mass and fragmentation pattern as authentic monacolin J. The other compound, found in only one of the strains, comigrated with monacolin L on TLC and HPLC.

[2] = system: A. nidulans strains WMH1741 and WMH1742 (WMH1738 transformed with AN26); assay: as above; conditions: 37° C.
Method: as §1

fungi = assay: Antifungal activity (general statement); conditions: noted by Applicants, no test described
Excerpt: Applicants envision that the present invention is also useful for providing antifungal compounds and organisms engineered to express antifungal compounds. Preferably, one would measure the antifungal properties of a compound in the manner of N. Lomovskaya, et al., Microbiology 143:875-883, 1997. Measurement of inhibition of yeast growth can be found in R. Ikeura, et al., J. Antibiotics 41:1148, 1988. The same general methods could be used for all fungi. Both of these references are hereby incorporated by reference.

| SMILES | inhibition of growth ([1]; strains WMH1739 and WMH1740, lovastatin at 0, 0.1, 0.5, 1, 5, 10, 50 and 100 μg/ml on solid AMM plates, 37° C.) | lovastatin concentration to which strains were significantly resistant ([1]; strains WMH1739 and WMH1740 compared with the host strain, solid media) | inhibition of growth ([2]; lovastatin 5 μg/ml on solid AMM plates) | inhibition of growth ([2]; lovastatin 50 μg/ml on solid AMM plates) | antifungal activity (fungi) |
| --- | --- | --- | --- | --- | --- |
| CC[C@H](C)C(=O)O[C@H]1C[C@@H](C)C=C2C=C[C@H](C)[C@H](CC[C@@H]3C[C@@H](O)CC(=O)O3)[C@H]21 [lovastatin] | no inhibition of growth | up to 100 μg/ml | slight inhibition | almost complete growth inhibition | varying degrees of antifungal activity |
| C[C@H]1C=C2C=C[C@H](C)[C@H](CC[C@@H]3C[C@@H](O)CC(=O)O3)[C@H]2[C@@H](O)C1 [monocolin J, monacolin J] | – | – | – | – | varying degrees of antifungal activity |
| C[C@@H]1CC[C@@H]2[C@@H](CC[C@@H]3C[C@@H](O)CC(=O)O3)[C@@H](C)C=C[C@H]2C1 [dihydromonocolin L, dihydromonacolin L] | – | – | – | – | varying degrees of antifungal activity |
| C[C@H]1C=C2C=C[C@H](C)[C@H](CC[C@@H]3C[C@@H](O)CC(=O)O3)[C@H]2CC1 [monocolin L, monacolin L] | – | – | – | – | varying degrees of antifungal activity |
